Test results: patent US20210284618A1, “FURANOCHALCONES AS INHIBITORS OF CYP1A1, CYP1A2 AND CYP1B1 FOR CANCER CHEMOPREVENTION” (Council of Scientific & Industrial Research, priority 2016, published 2021)

Tests used:
CYP1A1 = biological target: T1, CYP1A1 (Homo sapiens, UniProt P04798); test: CYP1A1 inhibition in HEK293 cells transfected with pcDNA3.1/CYP1A1 (live cells); format: cell-based
T1 construct: host or cells: yeast microsomes (Saccharosomes)
T1 sequence (P04798 1-512): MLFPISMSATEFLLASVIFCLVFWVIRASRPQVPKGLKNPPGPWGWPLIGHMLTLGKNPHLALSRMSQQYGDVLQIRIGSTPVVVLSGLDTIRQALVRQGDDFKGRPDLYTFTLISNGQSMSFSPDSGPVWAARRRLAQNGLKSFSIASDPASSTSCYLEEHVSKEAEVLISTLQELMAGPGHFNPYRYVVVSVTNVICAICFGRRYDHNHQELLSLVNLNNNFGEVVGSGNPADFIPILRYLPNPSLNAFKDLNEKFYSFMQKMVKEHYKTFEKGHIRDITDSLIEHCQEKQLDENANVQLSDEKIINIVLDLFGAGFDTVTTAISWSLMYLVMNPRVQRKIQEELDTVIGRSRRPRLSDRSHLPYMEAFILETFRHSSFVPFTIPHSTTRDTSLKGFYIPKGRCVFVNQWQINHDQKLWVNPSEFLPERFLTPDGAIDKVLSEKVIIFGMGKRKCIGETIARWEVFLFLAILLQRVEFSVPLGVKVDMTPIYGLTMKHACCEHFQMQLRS
Protocol: Example 26. In-vitro CYP450 inhibition in HEK293 cells transfected with pcDNA3.1/CYP1A1 against 5 μM EROD. […] The HEK293 cells used here was procured from ‘European Collection of Authenticated Cell Cultures’ (catalog number. ECACC 85120602).

CYP2E1 = biological target: T2, CYP2E1 (Homo sapiens, UniProt P05181); test: CYP2E1 inhibition in Saccharosomes; format: biochemical
T2 construct: host or cells: yeast microsomes (Saccharosomes)
T2 sequence (P05181 whole entry): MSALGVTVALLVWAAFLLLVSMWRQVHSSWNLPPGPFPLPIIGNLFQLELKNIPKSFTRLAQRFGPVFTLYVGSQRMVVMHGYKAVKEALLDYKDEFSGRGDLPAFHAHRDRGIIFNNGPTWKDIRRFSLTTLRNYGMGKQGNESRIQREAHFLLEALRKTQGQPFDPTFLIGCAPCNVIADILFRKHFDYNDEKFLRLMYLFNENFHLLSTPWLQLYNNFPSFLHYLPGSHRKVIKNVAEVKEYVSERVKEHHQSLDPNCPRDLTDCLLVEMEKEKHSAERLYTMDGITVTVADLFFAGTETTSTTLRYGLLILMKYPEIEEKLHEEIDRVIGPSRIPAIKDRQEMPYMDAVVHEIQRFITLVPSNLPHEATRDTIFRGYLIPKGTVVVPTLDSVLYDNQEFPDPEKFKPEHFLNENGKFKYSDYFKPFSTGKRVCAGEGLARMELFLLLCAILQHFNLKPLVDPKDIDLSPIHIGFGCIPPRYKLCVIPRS
Protocol: Example 25. IC50 determination for best compound against CYP1A1, CYP1B1 and other CYPs in Saccharosomes. Compounds were serially diluted to six different concentrations with 10% DMSO in a Sero-Well white microplate. The experiment was performed in a similar way as described above in examples 23 and 24.

For `COc1c(C(=O)/C=C/c2cccnc2)c(O)c(OC)c2occc12` [Compound 8, 3-(4,7-dimethoxy-6-hydroxybenzofuran-5-yl)-1-(pyridin-3-yl)-3-oxopropene], the IC50 (CYP1A1) was 470 nM, the “% inhibition of CYP1A1 in HEK293 cells at 10 μM” value (CYP1A1; 10 μM, 5 μM EROD) was 99.2% and the inhibition at 10 μM (CYP1A1; human, HEK293 cells transfected with pcDNA3.1/CYP1A1 (live cells), probe EROD (5 μM), % inhibition of CYP1A1 in HEK293 cells at 10 μM, 10 μM, 5 μM EROD) was over 80%. The “Inhibition of CYP2E1 at 10 μM” value (CYP2E1) was “No Inhibition”.
